Reference: ChEMBL document CHEMBL1201862, “PubChem BioAssay data set” (2004)
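A five-concentration, 48-hour dose response in 96-well plates underlies each endpoint, interpolated linearly between surrounding concentrations. Abbreviation: GI50, concentration required for 50% inhibition of growth.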 Active and inactive are the calls of the source. Cut-off read from the data, not from the text of the source: active = GI50 up to about 1.1 µM and inactive = higher. Non-standard residues stand in square brackets, D forms with d. Residues, ends and D or L forms follow the SMILES beside them. ξ: configuration not given here. *: point of attachment. NMeF = CN[C@@H](Cc1ccccc1)C(=O)O; NMeN = CN[C@@H](CC(N)=O)C(=O)O; NMeV = CN[C@H](C(=O)O)C(C)C; ξNMeV = CNC(C(=O)O)C(C)C; Boc = CC(C)(C)OC(=O)*; ξNMeA = CNC(C)C(=O)O; ξV = CC(C)C(N)C(=O)O

Assays:
Assay in all cases: growth of human tumour cells (NCI), 48 h
[1] = system: DMS-114
[2] = system: XF498
[3] = system: LXFL 529
[4] = system: DLD-1
[5] = system: RXF 631
[6] = system: SNB-78
[7] = system: KM-20L2
[8] = system: DMS-273
[9] = system: HOP-18

Compound | GI50 [1] | GI50 [2] | GI50 [3] | GI50 [4] | GI50 [5] | GI50 [6] | GI50 [7] | GI50 [8] | GI50 [9]
CC1(C)CC23C(=O)N(c4ccccc4)C(Nc4ccccc4)=NC2=CC(C#N)=C(C#N)C3O1 (centres undefined) | 42.5 µM (inactive) | > 100 µM (inactive) | > 100 µM (inactive) | 56.2 µM (inactive) | > 100 µM (inactive) | > 100 µM (inactive) | > 100 µM (inactive) | – | –
COc1ccccc1-n1c(NN)nc2ccc(Br)cc2c1=O | 33.6 µM (inactive) | 28.5 µM (inactive) | 24.3 µM (inactive) | 34.8 µM (inactive) | 45.3 µM (inactive) | 47.6 µM (inactive) | 39.9 µM (inactive) | 35.1 µM (inactive) | 5.18 µM (inactive)
N#CC1=C(Cl)NC(Cl)=C(C#N)C1c1c(Cl)cccc1Cl | 14.2 µM (inactive) | 13.9 µM (inactive) | 30.8 µM (inactive) | 21.4 µM (inactive) | – | 92.7 µM (inactive) | 45.8 µM (inactive) | 19.6 µM (inactive) | 30.1 µM (inactive)
CC1=C(O)C(=O)C2C(=O)C1C(C)C2c1ccccc1 (centres undefined) | – | > 100 µM (inactive) | > 100 µM (inactive) | > 100 µM (inactive) | – | > 100 µM (inactive) | – | > 100 µM (inactive) | –
Cc1nnc2n1N=C(c1ccccc1)C(c1ccccc1)S2 (centres undefined) | 25.5 µM (inactive) | > 100 µM (inactive) | 29.4 µM (inactive) | 55.3 µM (inactive) | – | 55.5 µM (inactive) | 27.4 µM (inactive) | 22.3 µM (inactive) | 60.7 µM (inactive)
C=C(/C=C/C=C(\CO)CCC=C(C)C)[C@H]1CCC2([C@H](CCCO)/C(=C(/C)C=O)CC[C@]2(C)O)[C@H]1O (some centres undefined) | > 100 µM (inactive) | > 100 µM (inactive) | > 100 µM (inactive) | > 100 µM (inactive) | – | > 100 µM (inactive) | > 100 µM (inactive) | > 100 µM (inactive) | 40.9 µM (inactive)
O=C(O)C1CCc2nnc(-c3ccccc3)n21 (centres undefined) | > 100 µM (inactive) | – | > 100 µM (inactive) | > 100 µM (inactive) | > 100 µM (inactive) | > 100 µM (inactive) | > 100 µM (inactive) | > 100 µM (inactive) | > 100 µM (inactive)
N/C=N/S(=O)(=O)c1ccc(NC(=O)COC(=O)c2cccc3c(=O)c4ccccc4[nH]c23)cc1 | > 100 µM (inactive) | > 100 µM (inactive) | – | > 100 µM (inactive) | – | – | – | > 100 µM (inactive) | > 100 µM (inactive)
O=S(O)CCCCSSCCCCSSCCCCS(=O)O | 25.5 µM (inactive) | 6.41 µM (inactive) | 11.1 µM (inactive) | 86.1 µM (inactive) | 33.7 µM (inactive) | 15.7 µM (inactive) | > 100 µM (inactive) | 42.6 µM (inactive) | 70.1 µM (inactive)
CCCCOC(=O)C1C2CCC(O2)C1C(=O)OCCCC (centres undefined) | > 39.4 µM (inactive) | > 100 µM (inactive) | – | > 53.7 µM (inactive) | – | > 100 µM (inactive) | > 42.3 µM (inactive) | > 100 µM (inactive) | > 100 µM (inactive)
COc1ccc2ccccc2c1C1OC(=O)c2ccccc21 (centres undefined) | 53.3 µM (inactive) | – | – | > 100 µM (inactive) | > 100 µM (inactive) | > 100 µM (inactive) | > 100 µM (inactive) | 86.9 µM (inactive) | > 100 µM (inactive)
CS(=O)(=O)CC1=Nc2nnc(CCCCCCCc3nnc4n3C(=O)C(CS(C)(=O)=O)=N4)n2C1=O | > 100 µM (inactive) | > 100 µM (inactive) | > 100 µM (inactive) | – | – | – | > 100 µM (inactive) | – | > 100 µM (inactive)
Cc1cc2c(c3oc(C(O)(CO)C4CO4)cc(=O)c13)C(=O)c1c(O)cccc1C2=O (centres undefined) | < 0.01 µM (active) | < 0.01 µM (active) | < 0.01 µM (active) | < 0.01 µM (active) | < 0.01 µM (active) | 0.031 µM (active) | < 0.01 µM (active) | < 0.01 µM (active) | < 0.01 µM (active)
CCc1cccc(CC)c1NC(=O)C1=C(C)NC(C)=C(C(=O)Nc2c(CC)cccc2CC)C1c1ccc([N+](=O)[O-])cc1 | 15.4 µM (inactive) | 18.4 µM (inactive) | 16.8 µM (inactive) | 21.4 µM (inactive) | – | – | 26.7 µM (inactive) | – | –
COC(=O)C(C)N(C)C(=O)[C@H](CC(N)=O)N(C)C(=O)[C@@H]1CCCN1C(=O)[C@H](C(C)C)N(C)C(=O)C(C(C)C)N(C)C(=O)[C@H](Cc1ccccc1)N(C)C(=O)C(NC(=O)OC(C)(C)C)C(C)C (some centres undefined) (Boc-[ξV][NMeF][ξNMeV][NMeV]P[NMeN][ξNMeA]-OMe) | 4.65 µM (inactive) | 15.4 µM (inactive) | 3.13 µM (inactive) | 17.8 µM (inactive) | – | 17.9 µM (inactive) | 33 µM (inactive) | 15.1 µM (inactive) | –
Cc1ccccc1NC(=O)C(=O)CC(=O)c1c(C)[n+]([O-])c2ccccc2[n+]1[O-] | > 100 µM (inactive) | – | > 100 µM (inactive) | > 100 µM (inactive) | – | > 100 µM (inactive) | > 100 µM (inactive) | > 100 µM (inactive) | > 100 µM (inactive)
O=S(=O)(Sc1ccc(Cl)cc1)c1ccc(Cl)cc1 | 15.1 µM (inactive) | 20.2 µM (inactive) | 16 µM (inactive) | 16.7 µM (inactive) | – | 24.2 µM (inactive) | 17.8 µM (inactive) | 15.4 µM (inactive) | –
Nc1nc2c(-c3ccc([N+](=O)[O-])cc3)nnn2c2ccccc12 | – | 78.5 µM (inactive) | > 100 µM (inactive) | > 100 µM (inactive) | – | 81.1 µM (inactive) | – | > 100 µM (inactive) | > 100 µM (inactive)
O=C1Nc2ccc([N+](=O)[O-])cc2/C1=N/Nc1ccc([N+](=O)[O-])cc1 | 19.9 µM (inactive) | 16.7 µM (inactive) | 12.4 µM (inactive) | 17.8 µM (inactive) | 24.7 µM (inactive) | – | 17.8 µM (inactive) | 10.7 µM (inactive) | –
CC(=O)Nc1ccc(/C=N\N2C(=O)c3ccccc3C2=O)cc1 | > 100 µM (inactive) | > 100 µM (inactive) | > 100 µM (inactive) | > 100 µM (inactive) | – | > 100 µM (inactive) | > 100 µM (inactive) | > 100 µM (inactive) | > 100 µM (inactive)
Cc1c(NC(=S)NC(=O)c2ccc([N+](=O)[O-])cc2)c(=O)n(-c2ccccc2)n1C | > 100 µM (inactive) | – | > 100 µM (inactive) | > 100 µM (inactive) | – | > 100 µM (inactive) | > 100 µM (inactive) | > 100 µM (inactive) | > 100 µM (inactive)
COC(=O)c1[nH]c(=S)[nH]c(=O)c1-c1ccc(Cl)cc1 | > 50 µM (inactive) | > 50 µM (inactive) | > 50 µM (inactive) | > 50 µM (inactive) | > 50 µM (inactive) | > 50 µM (inactive) | > 50 µM (inactive) | > 50 µM (inactive) | –
C[C@]12CCC(=O)C=C1CC[C@@H]1C2CC[C@]2(C)c3nn(-c4ccccc4)nc3CC12 (some centres undefined) | > 100 µM (inactive) | > 100 µM (inactive) | > 100 µM (inactive) | > 100 µM (inactive) | – | > 100 µM (inactive) | > 100 µM (inactive) | > 100 µM (inactive) | –
Cc1cc(NC(=O)NC(=O)c2ccccc2[N+](=O)[O-])ccc1Oc1ncc(Cl)cn1 | 0.0927 µM (active) | 0.0671 µM (active) | 0.0773 µM (active) | 0.0783 µM (active) | – | 0.0964 µM (active) | 0.0906 µM (active) | 0.0501 µM (active) | 23.4 µM (inactive)
O=C1c2ccccc2C(=O)N1CCN(CCN1C(=O)c2ccccc2C1=O)Cc1ccccc1 | > 100 µM (inactive) | > 100 µM (inactive) | > 100 µM (inactive) | > 100 µM (inactive) | – | > 100 µM (inactive) | > 100 µM (inactive) | > 100 µM (inactive) | –
